Assay results reported in DBAASP.
Converted amounts (≈) assume the structure as drawn. Blank lines part the entries; values can stand above or below the compound they belong to.

Key:
Test in all cases: ≥ marks a high value that may be exact or a test limit, other limits are often not marked, values filed in µg/mL are converted to µM
[1] = tested on: Bacillus subtilis CGMCC 1.3376
[2] = tested on: Escherichia coli CGMCC 1.8732
[3] = tested on: Klebsiella pneumoniae CGMCC 1.1736
[4] = tested on: Pseudomonas aeruginosa CGMCC 1.2421
[5] = tested on: Staphylococcus aureus CGMCC 1.8721
[6] = tested on: Staphylococcus epidermidis CGMCC 1.4260
[7] = tested on: Bacillus cereus ATCC 14579
[8] = tested on: Bacillus subtilis ATCC 23857
[9] = tested on: Candida albicans ATCC 90028
[10] = tested on: Cryptococcus neoformans ATCC 28957
[11] = tested on: Escherichia coli ATCC 25922
[12] = tested on: Fusarium oxysporum f.sp. vasinfectum
Fusarium oxysporum = tested on: Fusarium oxysporum
Fusarium solani = tested on: Fusarium solani
[13] = tested on: Pectobacterium carotovorum
[14] = tested on: Pseudomonas aeruginosa ATCC 27853
[15] = tested on: Pseudomonas syringae pv. tabaci
Ramulariopsis gossypii = tested on: Ramulariopsis gossypii
Rhizoctonia solani = tested on: Rhizoctonia solani
[16] = tested on: Staphylococcus aureus ATCC 25923
Trichoderma asperellum = tested on: Trichoderma asperellum
[17] = tested on: Xanthomonas campestris pv. citri
[18] = tested on: Acinetobacter baumannii Q12-0809
[19] = tested on: Acinetobacter baumannii Q12-0867
[20] = tested on: Acinetobacter baumannii Q13-0717
Acinetobacter baumannii = tested on: Acinetobacter baumannii
[21] = tested on: Campylobacter jejuni NCTC 11351
Campylobacter jejuni = tested on: Campylobacter jejuni
[22] = tested on: Enterococcus faecalis JH-2-2
Escherichia coli K-12 = tested on: Escherichia coli K-12
Escherichia coli = tested on: Escherichia coli
[23] = tested on: Klebsiella pneumoniae ATCC 700603
[24] = tested on: Klebsiella pneumoniae NCTC 13442
[25] = tested on: Klebsiella pneumoniae Q14-0095
[26] = tested on: Klebsiella pneumoniae Q14-0146
[27] = tested on: Listeria monocytogenes NCTC 11994
[28] = tested on: Pseudomonas aeruginosa PAO1
[29] = tested on: Pseudomonas aeruginosa Q14-0208
[30] = tested on: Pseudomonas aeruginosa Q14-0890
[31] = tested on: Salmonella typhimurium SL1344
[32] = tested on: Staphylococcus aureus ATCC 29213
[33] = tested on: Staphylococcus aureus MRSA-15
[34] = tested on: Staphylococcus aureus NCTC 12493
[35] = tested on: Staphylococcus aureus Q14-0320
[36] = tested on: Staphylococcus aureus Q14-0325
[37] = tested on: Staphylococcus aureus RN4220
Klebsiella pneumoniae = tested on: Klebsiella pneumoniae
[38] = tested on: Pseudomonas aeruginosa PA-W1
[39] = tested on: Staphylococcus aureus NCTC 8325-4
Staphylococcus aureus = tested on: Staphylococcus aureus
Bacillus cereus JCM 2152 = tested on: Bacillus cereus JCM 2152
[40] = tested on: Candida albicans JCM 2085
[41] = tested on: Staphylococcus aureus JCM 2874

Compound: CC[C@H](C)[C@H](NC(=O)[C@H](CO)NC(=O)CNC(=O)[C@@H](NC(=O)[C@@H](N)CCCN=C(N)N)[C@@H](C)CC)C(=O)N[C@@H](CC(C)C)C(=O)NCC(=O)N[C@@H](C)C(=O)N[C@@H](CC(C)C)C(=O)N[C@@H](C)C(=O)N[C@@H](CCCCN)C(=O)NCC(=O)N[C@@H](CC(C)C)C(=O)N1CCC[C@H]1C(=O)N[C@H](C(=O)N[C@@H](CC(C)C)C(=O)N[C@H](C(=O)N[C@@H](CO)C(=O)N[C@@H](Cc1c[nH]c2ccccc12)C(=O)N[C@H](C(=O)N[C@@H](CCCCN)C(=O)N[C@@H](CC(N)=O)C(=O)N[C@@H](CCCN=C(N)N)C(N)=O)[C@@H](C)CC)[C@@H](C)CC)[C@@H](C)O [RIGSILGALAKGLPTLISWIKNR]
MIC [1]: 6.25 µM (≈ 15.5 µg/mL) | MIC [2]: 12.5 µM (≈ 31 µg/mL) | MIC [3]: 12.5 µM (≈ 31 µg/mL) | MIC [4]: 6.25 µM (≈ 15.5 µg/mL) | MIC [5]: 6.25 µM (≈ 15.5 µg/mL) | MIC [6]: 3.13 µM (≈ 7.75 µg/mL)

Compound: CSCC[C@H](NC(=O)[C@@H](N)[C@@H](C)O)C(=O)N[C@@H](CO)C(=O)N[C@@H](CC(C)C)C(=O)N[C@@H](CCCN=C(N)N)C(=O)N[C@@H](Cc1ccccc1)C(=O)N[C@@H](Cc1c[nH]c2ccccc12)C(=O)N[C@@H](CCCN=C(N)N)C(=O)N[C@@H](Cc1c[nH]c2ccccc12)C(=O)N[C@@H](CCCCN)C(=O)N[C@H](C(=O)N[C@@H](CCCN=C(N)N)C(=O)O)C(C)C [TMSLRFWRWKVR]
MIC [18]: ≥ 38.4 µM | MIC [19]: 9.6 µM (≈ 16 µg/mL) | MIC [20]: 19.2 µM (≈ 32 µg/mL) | MIC (Acinetobacter baumannii): ≥ 76.8 µM | MIC [21]: ≥ 76.8 µM | MIC (Campylobacter jejuni): ≥ 76.8 µM | MIC [22]: ≥ 38.4 µM | MIC (Escherichia coli K-12): ≥ 38.4 µM | MIC (Escherichia coli): 76.8 µM (≈ 128 µg/mL) | MIC [23]: > 76.8 µM | MIC [24]: ≥ 76.8 µM | MIC [25]: ≥ 76.8 µM | MIC [26]: ≥ 76.8 µM | MIC [27]: ≥ 38.4 µM | MIC [14]: 76.8 µM (≈ 128 µg/mL) | MIC [28]: 38.4 µM (≈ 64 µg/mL) | MIC [29]: ≥ 76.8 µM | MIC [30]: ≥ 38.4 µM | MIC [31]: ≥ 38.4 µM | MIC [32]: 76.8 µM (≈ 128 µg/mL) | MIC [33]: ≥ 38.4 µM | MIC [34]: ≥ 38.4 µM | MIC [35]: ≥ 76.8 µM | MIC [36]: ≥ 76.8 µM | MIC [37]: ≥ 38.4 µM

Compound: CC[C@H](C)[C@H](NC(=O)[C@H](CCCCN)NC(=O)[C@H](CO)NC(=O)[C@@H](NC(=O)[C@H](CC(C)C)NC(=O)[C@H](CO)NC(=O)[C@@H]1CCCN1C(=O)[C@H](CC(C)C)NC(=O)[C@H](Cc1ccccc1)NC(=O)[C@H](CC(N)=O)NC(=O)[C@H](C)NC(=O)[C@H](CC(C)C)NC(=O)[C@H](C)NC(=O)CNC(=O)[C@@H](NC(=O)[C@@H](NC(=O)[C@H](CO)NC(=O)CNC(=O)[C@H](Cc1ccccc1)NC(=O)[C@@H](N)Cc1ccccc1)[C@@H](C)O)[C@@H](C)CC)[C@@H](C)CC)C(=O)N[C@@H](CCCN=C(N)N)C(=O)N[C@@H](CC(N)=O)C(N)=O [FFGSTIGALANFLPSLISKIRN]
MIC (Bacillus cereus JCM 2152): 6.76 µM (≈ 16 µg/mL) | MIC [40]: 27 µM (≈ 64 µg/mL) | MIC [41]: 27 µM (≈ 64 µg/mL)

The remaining lines, values ahead:

MIC [7]: 3.33 µM (≈ 5.77 µg/mL) | MIC [8]: 1 µM (≈ 1.73 µg/mL) | MIC [9]: 8 µM (≈ 13.9 µg/mL) | MIC [10]: 4 µM (≈ 6.93 µg/mL) | MIC [11]: 2 µM (≈ 3.46 µg/mL) | MIC [12]: 4 µM (≈ 6.93 µg/mL) | MIC (Fusarium oxysporum): 4 µM (≈ 6.93 µg/mL) | MIC (Fusarium solani): 16 µM (≈ 27.7 µg/mL) | MIC [13]: 1 µM (≈ 1.73 µg/mL) | MIC [14]: 5.33 µM (≈ 9.23 µg/mL) | MIC [15]: 4 µM (≈ 6.93 µg/mL) | MIC (Ramulariopsis gossypii): 2 µM (≈ 3.46 µg/mL) | MIC (Rhizoctonia solani): 16 µM (≈ 27.7 µg/mL) | MIC [16]: 4 µM (≈ 6.93 µg/mL) | MIC (Trichoderma asperellum): 16 µM (≈ 27.7 µg/mL) | MIC [17]: 1 µM (≈ 1.73 µg/mL)
Compound: CC(C)C[C@H](NC(=O)[C@H](C)NC(=O)[C@H](CC(C)C)NC(=O)[C@@H](NC(=O)[C@H](C)NC(=O)[C@H](CCCCN)NC(=O)[C@H](CC(C)C)NC(=O)[C@H](CC(C)C)NC(=O)[C@@H](NC(=O)[C@H](Cc1cnc[nH]1)NC(=O)[C@@H](NC(=O)[C@H](CCCCN)NC(=O)[C@H](CO)NC(=O)[C@H](CC(C)C)NC(=O)[C@@H](NC(=O)[C@@H](N)CCCCN)C(C)C)C(C)C)[C@@H](C)O)C(C)C)C(N)=O [KVLSKVHTLLKAVLAL]

MIC (Escherichia coli K-12): 7.81 µM (≈ 11.4 µg/mL) | MIC (Klebsiella pneumoniae): 31.3 µM (≈ 45.9 µg/mL) | MIC [38]: 15.6 µM (≈ 22.9 µg/mL) | MIC [28]: 7.81 µM (≈ 11.4 µg/mL) | MIC [39]: 15.6 µM (≈ 22.9 µg/mL) | MIC (Staphylococcus aureus): 62.5 µM (≈ 91.6 µg/mL)
Compound: CC(C)C[C@H](NC(=O)[C@H](CCCCN)NC(=O)[C@H](CCCCN)NC(=O)[C@H](CC(C)C)NC(=O)[C@H](CC(C)C)NC(=O)[C@H](CCCCN)NC(=O)[C@H](CCCCN)NC(=O)[C@H](CC(C)C)NC(=O)[C@H](CC(C)C)NC(=O)[C@H](CCCCN)NC(=O)[C@H](CCCCN)NC(=O)[C@@H](N)CC(C)C)C(N)=O [LKKLLKKLLKKL]
